Results: PMC7156724, “Potent BRD4 inhibitor suppresses cancer cell-macrophage interaction” (Nature Communications, 2020)
“And” between values parts separate entries of the source, which are not always exact repeats. Equal entries are not always repeated.

Key:
HIF1 reporter activity = test: HIF1 luciferase reporter assay; assay type: cell-based, human; set-up: key to HIF1 luciferase reporter activity, relative (Fig.7e): firefly/Renilla luciferase activity ratio, relative to control
Protocol: Fig. 7 NHWD-870 inhibited CSF1 expression through suppressing BRD4 and HIF1α in tumor cells. a, b Representative western blot analysis of control (Ctrl) and BRD4 knockout (KO) A375 and A2780 cells exposed to 20% or 1% O2 for 24 hours. Selected from three independent experiments. c, d Representative western blot analysis of A375 and A2780 cells treated with DMSO or 25 nM NHWD-870 and exposed to 20% or 1% O2 for 24 h. Selected from three independent experiments. e Relative HIF1 luciferase reporter activity in control (Ctrl), BRD4 knockout (KO), or NHWD-870 treated A375 and A2780 cells exposed to 20% or 1% O2 for 24 h. Data are presented as mean ± SEM from three independent experiments. f RT-qPCR analyses of CSF1 in control (Ctrl), BRD4 knockout (KO), or NHWD-870 treated A375 and A2780 cells exposed to 20% or 1% O2 for 24 hours. Data are presented as mean ± SEM from three independent experiments. g RT-qPCR analyses of HIF1A in A375 or A2780 cells treated with 15 nM NHWD-870 or DMSO control for 24 h. Data are presented as mean ± SEM from three independent experiments. h Genome browser view of BRD4 ChIP-seq peaks on the HIF1A promoter. Shown are BRD4 ChIP and input control of A375 cells (top panel) and BRD4 ChIP of MDA-MB231 cells treated with DMSO or JQ-1 (bottom panel). i BRD4 ChIP-qPCR analyses of the HIF1A promoter in A2780 cells treated with DMSO or NHWD-870 for 72 h. Data are presented as mean ± SEM from three independent experiments. j RT-qPCR analyses of CSF1 in A375 and A2780 cells were transiently transduced with HIF1α, then exposed to 1% O2 for 24 h. Ctrl, Control. Data are presented as mean ± SEM from three independent experiments. k A model showing the effects of NHWD-870 on cancer cell-TAM interaction. NHWD-870 inhibits the proliferation and survival of TAMs partly by inhibiting BRD4 activity, HIF1α expression, and CSF1 secretion by tumor cells, and downregulating CSF1R mediated ERK and PI3K/AKT signaling in TAMs. p values were calculated using two-tailed, unpaired t tests in this figure. *p < 0.05; **p < 0.01; ***p < 0.001. Source data are provided as a Source Data file.
Supplementary Figure 15. […]
Data in (a) and (c-e) are presented as mean ± SEM from 3 independent experiments. p values were calculated using two-tailed, unpaired t tests. **, p<0.01; ***, p<0.001. Source data are provided as a Source […]
All patients had […]
undergone complete cytoreductive surgery.
14. Immunohistochemical staining. Paraffin-embedded implantation samples isolated from peritoneal metastasis of EOC patients (128 cases) were sectioned at a thickness of 4μm. To stain CD68, CSF1 and p-BRD4, the slides were first deparaffinized in xylene and rehydrated with gradient concentrations of alcohol under standard procedures. After rehydration, the slides were immersed in 0.01 mol/L citrate buffer (pH 6.0) and heated (95°C) for 15 min for antigen retrieval.
Then, the samples were incubated with 3% hydrogen peroxide (H2O2) for 10 minutes followed by 10% normal goat serum blocking for 10 minutes. Subsequently, the sections were incubated with rabbit polyclonal anti-human CD68 antibody (dilution 1:100) (sc-20060, Santa Cruz Biotechnology) and anti-human p-BRD4

[1] = system: HaCAT cells (immortalized human keratinocytes); test: MTS assay of non-cancerous cells; assay type: cell-based; set-up: Cell viability (Sup Fig.4a) / Cell viability (Sup Fig.4b) / Cell viability (Sup Fig.4b, 72h): unit not given here; conditions: for Cell viability (Sup Fig.4b): 48h
Protocol: (§1) Supplementary Figure 4. […] (a-c) MTS
(§2) assays of HaCAT cells (immortalized human keratinocytes) treated with the indicated concentration of
(§3) NHWD-870 for 24h (a), 48h (b) or 72h (c). Data are presented as mean ± SEM of 5 independent experiments.
(§4) p values were calculated from two-tailed, unpaired t tests. Source data are provided as a Source Data file.
(§5) 37℃, 5% CO2. […]

[2] = MTS assay of non-cancerous cells; assay type: cell-based, human; set-up: Cell viability (Sup Fig.4a) / Cell viability (Sup Fig.4b) / Cell viability (Sup Fig.4b, 72h): unit not given here; conditions: human
Protocol: as §1, §2, §3, §4, §5

SMILES: Cc1nnn(C)c1-c1cnc2c3c4cnn(C)c4ccc3n([C@H](c3ccccc3)C3CCOCC3)c2c1 [NHWD-870]
- HIF1 luciferase reporter activity, relative (Fig.7e) (HIF1 reporter activity; A375, 1% O2): 3.6595 and 5.4118 and 3.2149
- HIF1 luciferase reporter activity, relative (Fig.7e) (HIF1 reporter activity; A375, 20% O2): 0.7214 and 0.5505 and 0.6045
- HIF1 luciferase reporter activity, relative (Fig.7e) (HIF1 reporter activity; A2780, 1% O2): 1.7045 and 2.3901 and 2.1842
- HIF1 luciferase reporter activity, relative (Fig.7e) (HIF1 reporter activity; A2780, 20% O2): 0.5644 and 0.5674 and 0.4042
- HIF1 reporter activity (HIF1 reporter activity; A2780 and A375 cells, 20% or 1% O2, 24 h): significantly decreased HIF1 reporter activity
- effect on growth of HaCAT cells ([1]; 24h, 48h or 72h): minimal effects
- Cell viability (Sup Fig.4a) ([1]; 24h, 8 nM, 0.008 µM): 96.6 and 101.8 and 89.4 and 88.3
- Cell viability (Sup Fig.4a) ([1]; 24h, 16 nM, 0.016 µM): 98.4 and 107.6 and 95.8
- Cell viability (Sup Fig.4a) ([1]; 24h, 32 nM, 0.032 µM): 83 and 93.4 and 105.5 and 99.6 and 95.5
- Cell viability (Sup Fig.4a) ([1]; 24h, 64 nM, 0.064 µM): 112.7 and 111.1 and 101.6 and 109.8
- Cell viability (Sup Fig.4a) ([1]; 24h, 250 nM, 0.25 µM): 109.5 and 106.5 and 97.6 and 108.3
- Cell viability (Sup Fig.4a) ([1]; 24h, 500 nM, 0.5 µM): 119.6 and 110.7 and 109.3 and 105
- Cell viability (Sup Fig.4a) ([1]; 24h, 1000 nM, 1 µM): 106.7 and 106.8 and 109.4 and 111.5
- Cell viability (Sup Fig.4b) ([1]; 8 nM, 0.008 µM): 89.1 and 94.5 and 96.5
- Cell viability (Sup Fig.4b) ([1]; 16 nM, 0.016 µM): 85.3 and 85.9 and 93.1 and 85.1
- Cell viability (Sup Fig.4b) ([1]; 32 nM, 0.032 µM): 88.3 and 88.2
- Cell viability (Sup Fig.4b) ([1]; 64 nM, 0.064 µM): 94.7 and 90.4 and 88.4
- Cell viability (Sup Fig.4b) ([1]; 250 nM, 0.25 µM): 97.7 and 92.7 and 91.5
- Cell viability (Sup Fig.4b) ([1]; 500 nM, 0.5 µM): 88 and 95 and 91.6 and 82.3
- Cell viability (Sup Fig.4b) ([1]; 1000 nM, 1 µM): 88.6 and 81.5 and 80.9 and 84.8
- Cell viability (Sup Fig.4b, 72h) ([1]; 8 nM, 0.008 µM): 90.9 and 86.4 and 92.1 and 95.1
- Cell viability (Sup Fig.4b, 72h) ([1]; 16 nM, 0.016 µM): 95.9 and 89.1 and 93.1
- Cell viability (Sup Fig.4b, 72h) ([1]; 32 nM, 0.032 µM): 88.4 and 97.6 and 92.8 and 90.1
- Cell viability (Sup Fig.4b, 72h) ([1]; 64 nM, 0.064 µM): 99.6 and 89.5 and 92.9
- Cell viability (Sup Fig.4b, 72h) ([1]; 250 nM, 0.25 µM): 93.7 and 89.8 and 88
- Cell viability (Sup Fig.4b, 72h) ([1]; 500 nM, 0.5 µM): 98.2 and 93.6 and 82.4 and 89.4
- Cell viability (Sup Fig.4b, 72h) ([1]; 1000 nM, 1 µM): 74 and 86.3 and 92.4
- viability at 24 h, 0.008 µM ([2]; HaCAT cells (immortalized human keratinocytes), 24h, 8 nM, read-out: Cell viability (Sup Fig.4a)): 92.2%
- viability at 24 h, 0.016 µM ([2]; HaCAT cells (immortalized human keratinocytes), 24h, 16 nM, read-out: Cell viability (Sup Fig.4a)): 110%
- viability at 24 h, 0.064 µM ([2]; HaCAT cells (immortalized human keratinocytes), 24h, 64 nM, read-out: Cell viability (Sup Fig.4a)): 103%
- viability at 24 h, 0.25 µM ([2]; HaCAT cells (immortalized human keratinocytes), 24h, 250 nM, read-out: Cell viability (Sup Fig.4a)): 104%
- viability at 24 h, 0.5 µM ([2]; HaCAT cells (immortalized human keratinocytes), 24h, 500 nM, read-out: Cell viability (Sup Fig.4a)): 100%
- viability at 48 h, 0.032 µM ([2]; HaCAT cells (immortalized human keratinocytes), 48h, 32 nM, read-out: Cell viability (Sup Fig.4b)): 91%
- viability at 48 h, 0.064 µM ([2]; HaCAT cells (immortalized human keratinocytes), 48h, 64 nM, read-out: Cell viability (Sup Fig.4b)): 83.9%
- viability at 48 h, 0.25 µM ([2]; HaCAT cells (immortalized human keratinocytes), 48h, 250 nM, read-out: Cell viability (Sup Fig.4b)): 88.5%
- viability at 48 h, 0.5 µM ([2]; HaCAT cells (immortalized human keratinocytes), 48h, 500 nM, read-out: Cell viability (Sup Fig.4b)): 86.7%
- viability at 48 h, 1 µM ([2]; HaCAT cells (immortalized human keratinocytes), 48h, 1000 nM, read-out: Cell viability (Sup Fig.4b)): 87.1%
- viability at 72 h, 0.008 µM ([2]; HaCAT cells (immortalized human keratinocytes), 72h, 8 nM, read-out: Cell viability (Sup Fig.4b, 72h)): 99.5%
- viability at 72 h, 0.016 µM ([2]; HaCAT cells (immortalized human keratinocytes), 72h, 16 nM, read-out: Cell viability (Sup Fig.4b, 72h)): 90.2%
- viability at 72 h, 0.032 µM ([2]; HaCAT cells (immortalized human keratinocytes), 72h, 32 nM, read-out: Cell viability (Sup Fig.4b, 72h)): 86.9%
- viability at 72 h, 0.064 µM ([2]; HaCAT cells (immortalized human keratinocytes), 72h, 64 nM, read-out: Cell viability (Sup Fig.4b, 72h)): 89.6%
- viability at 72 h, 0.25 µM ([2]; HaCAT cells (immortalized human keratinocytes), 72h, 250 nM, read-out: Cell viability (Sup Fig.4b, 72h)): 78.9%
- viability at 72 h, 0.5 µM ([2]; HaCAT cells (immortalized human keratinocytes), 72h, 500 nM, read-out: Cell viability (Sup Fig.4b, 72h)): 87.1%
- viability at 72 h, 1 µM ([2]; HaCAT cells (immortalized human keratinocytes), 72h, 1000 nM, read-out: Cell viability (Sup Fig.4b, 72h)): 78.4%
- viability at 24 h, 1 µM ([2]; HaCAT cells (immortalized keratinocytes), 24h, 1000 nM, read-out: Cell viability (Sup Fig.4a)): 108%
- viability at 48 h, 0.008 µM ([2]; HaCAT cells (immortalized keratinocytes), 48h, 8 nM, read-out: Cell viability (Sup Fig.4b)): 86.6%
- viability at 48 h, 0.016 µM ([2]; HaCAT cells (immortalized keratinocytes), 48h, 16 nM, read-out: Cell viability (Sup Fig.4b)): 89.9%
